Experimental findings from patent US20130183706A1, “Method for Culturing Adipocytes” (ASSISTANCE PUBLIQUE-HOPITAUX DE PARIS, priority 2010, published 2013) are described below.

The test relates to Akt phosphorylation in mature adipocytes. Briefly: Measurement of insulin sensitivity (Ser473 Akt phosphorylation, immunoelectrophoresis). The class given is cell-based, human. The note with it: insulin 10 nM, 15 to 30 minutes; freshly isolated adipocytes (2D) and adipocytes kept 48 h in hydrogel (3D). The procedure: The mature adipocytes are isolated by collagenase treatment of human adipose tissue. The subcutaneous human adipose tissue of young women (<45 years) who are not obese (BMI<30) is cut up in digestion medium (DMEM, 2% essentially fatty acid free albumin (A6003, Sigma, St Louis, […]., USA), 1 mg/ml collagenase A (Roche Diagnostics, Mannheim, Germany)) in the proportion of 1 g of tissue per 2 ml of digestion medium in polypropylene tubes. The tubes are placed at 37° C. for […] with agitation (200 cycles/minute). After digestion, the medium is filtered through woven cotton gauze. The mature adipocytes are left to decant by floating for 5 minutes and are then washed 3 times with 5 volumes of 10% sucrose. At the end of the final wash, the sucrose is removed and the mature adipocytes are ready to be incorporated into the PuraMatrix™ hydrogel.
The wells containing the hydrogel/adipocytes deprived of insulin the day before are incubated with the incubation medium (150 μl) (DMEM/F12 and 10 nM insulin). The plates are then placed in the incubator for 15 to 30 minutes. […] The signals are detected by chemiluminescence (Detection ECL, GE Healthcare) and quantified by densitometry.

Regarding Insulin: major anabolic hormone, the “Akt phosphorylation (Ser473)” value is recorded as “stimulates”.
